One assay has as its system DanG. In words: cell cycle analysis (PI staining). Type of assay: cell-based, human. Conditions: IC90, 24 and 48 h (Figure 19a). The procedure:
(§1) The potent cytotoxicity and the potential to inhibit the proliferation of cancer cells accompanied by DNA damage effects raised the question as to whether cell cycle progression might be affected as a result of treatment with pentathiepins.
(§2) Cells were harvested by trypsinization, collected in 1.5 mL tubes, and washed twice with PBS by centrifuging for 5 min at 500× g and discarding the supernatant after every step. For fixation, 500 µL of ice-cold ethanol (70%) was added dropwise under vortexing with a subsequent incubation on ice for 30 min. Then, the cells were centrifuged for 10 min at 4000 rpm and 4 °C, the supernatant was removed, and the cells were resuspended in 500 µL of PBS containing 25 µg/mL of PI and 100 µg/mL of RNase. The staining solution was incubated for 30 min, and the cell suspension was measured at λEx/Em = 488/655–730 nm using a MACSquant Analyzer 10 (Miltenyi Biotec, Teterow, Germany).

The test system of the next assay is HAP-1.KO.GPx1. In words: cell cycle analysis (PI staining). In kind it is cell-based, human. Conditions: IC90, 24 h. The procedure:
as §1, §2

The next assay concerns HAP-1. In words: cell cycle analysis (PI staining). Type of assay: cell-based, human. The settings on record: IC90, 24 h. The procedure: as §1, §2
For another assay, the system named is pBR322 plasmid DNA. Kind of assay: plasmid cleavage assay. Type of assay: biochemical. Also on record: key to DNA cleavage: no impact (0); weak impact (+); strong impact (++). Conditions: for DNA cleavage: summary grade; for linearized plasmid (double-strand breaks) / open circular DNA (single-strand breaks): pH 7.1, 20 h, 37 °C. The text has this: We pursued two different strategies to assess the potential of the pentathiepins to damage DNA: a simple plasmid cleavage assay and the cellular Comet assay. The former is a straightforward method to investigate whether a test compound can cleave DNA in vitro, and if so, whether single and/or double strand breaks are created, while the latter is an ex vivo assay that measures DNA fragmentation in single cells. In the plasmid cleavage assay, a single strand break would relax the supercoiled plasmid (scDNA) and lead to the detection of open circular DNA (ocDNA), whereas a double-strand break would linearize the plasmid (linDNA). An agarose gel electrophoresis enables the discrimination of the distinct plasmid conformations due to their specific electrophoretic mobilities (Figure 11a).
This assay was used to assess the cleaving ability of the pentathiepins in a cell-free setting and on the basis of procedures described in [54]. Plasmids occur in three different conformations with distinct electrophoretic mobilities that can finally be separated visualized via agarose gel electrophoresis. For each condition, 0.3 µg of pBR322 plasmid DNA was incubated with either the pentathiepin or a corresponding amount of the solvent acetonitrile. Incubations were performed in sodium phosphate buffer (50 mM) with or without GSH for 20 h at 37 °C in a water bath. Afterwards, the samples were separated by using an agarose gel (1%) run at 80 V for 2 h. Resulting bands were stained with GelRed® (Sigma-Aldrich, Taufkirchen, Germany),) and imaged and quantified via Gel-Doc EZ Imager and Image Lab (Bio-Rad, Feldkirchen, Germany), respectively. To assess the cleavage ability of the pentathiepins, we incubated the plasmid with either 5 or 25 µM of compound at a fixed concentration of GSH (2 mM). In another experiment, the amount of GSH varied between 1 µM and 10 mM, while the pentathiepin concentration was 5 µM. In contrast to the aforementioned settings where a buffer pH of 7.1 was applied, in a third attempt, the influence of different pH on the cleavage outcome was analyzed by adjusting the buffer pH to 5.1, 6.1, or 8.1 while using fixed concentrations of both test compound and GSH. Another attempt to gain insights into the cleaving mechanism was made by adding either catalase, superoxide dismutase (100 µg/mL each), or both to 5 µM pentathiepin with 2 mM GSH.

For assay [1], the system named is HAP-1, HAP-1.KO.GPx1, A2780, and Siso. Kind of assay: apoptosis (summary). In kind it is cell-based, human. Also on record: key: no impact (0); weak impact (+); strong impact (++). The settings on record: summary grade. The procedure:
As reported in our earlier publication, a representative pentathiepin was capable of inducing apoptosis in cancer cell lines. Here, we tested compounds 1–6 for their ability to trigger this particular modality of cell death in a subset of four cell lines: HAP-1, HAP-1.KO.GPx1, A2780, and Siso. A flow cytometric assay was performed, allowing us to discriminate between viable, early, and late apoptotic cells (representative dot plots can be found in Figure S47). FITC-labeled annexin V was used to assess the externalization of phosphatidyl serine as a hallmark of early apoptosis induction. The addition of propidium iodide (PI) enabled the detection of late apoptotic cells as it only permeates porous cell membranes and exerts fluorescence once bound to double-stranded DNA.
The annexin V-FITC/PI assay, which discriminates between viable, early, and late apoptotic cells within a sample population, was performed according to the manufacturer’s instructions (Miltenyi Biotec, Teterow, Germany). Briefly, 125,000 cells were seeded in 2 mL per well of a 6-well plate, allowed to adhere overnight, and subsequently treated with the respective pentathiepin (IC90, see Table S4) diluted in 3 mL of medium. After incubation periods of 6, 24, or 48 h, the cells were harvested, washed with the provided binding buffer, and stained with the annexin V-FITC reagent for 20 min at room temperature (RT) in the dark. After another washing step, the pellet was resuspended, and PI was added immediately before flow cytometric measurement at λEx/Em = 488/525 ± 50 nm for FITC and λEx/Em = 488/655–730 nm for PI with the MACSquant Analyzer 10 (Miltenyi Biotec, Teterow, Germany).

Assay [2] has as its system HAP-1, HAP-1.KO.GPx1, Siso and A2780 cells. Kind of assay: cellular morphology after 24 h. In kind it is cell-based, human. Further details: key: no impact (0); weak impact (+); strong impact (++). Conditions: summary grade. The source says: All new pentathiepins induced apoptosis, although to different extents and in a cell line-dependent manner. […] In the corresponding GPx1-knockout cell line, the effect of doxorubicin was higher (about 50%), whereas only two of the pentathiepins induced apoptosis, namely, 3 and 5. The fractions of early apoptotic cells were 34 and 15%, respectively, and the population of late apoptotic cells 6% for 3. In the ovarian carcinoma cell line A2780 the overall effects were marginal, but all compounds except 6 increased the percentage of early apoptotic cells to 6–14%, with 3 resulting in the highest amount. In the Siso cell line, pentathiepin 3 increased both the number of early and late apoptotic cells to about 20%, which exceeded the effects of doxorubicine (0.5 µM). These findings were further corroborated by the observation of morphological features such as membrane blebbing and cell shrinkage as particular hallmarks of apoptosis (Figure S51).
Figure S51: Representative images of cellular morphology after an incubation for 24 h with the respective pentathiepins 1-6 (IC90) or a corresponding volume of DMF as negative control in HAP-1, HAP-1.KO.GPx1, Siso and A2780 cells. Arrows denote membrane blebbing, dashed arrows label cell shrinkage.
(1 picture or pasted object on this page, not shown here)

On to `CCOc1c2c(c3cnc4[nH]c(-c5ccc(OC)cc5)cc4n13)SSSSS2` [Compound 1, 11-Ethoxy-2-(4-methoxyphenyl)-3H-[1,2,3,4,5]pentathiepino[6′,7′:3,4]pyrrolo[1,2-a]pyrrolo[2,3-e]pyrazine], for which the “cell cycle distribution vs control” value with DanG is “caused no differences from a normal cell cycle”. In addition, the “increase of cells in G2/M-phase” value in the assay on HAP-1.KO.GPx1 and with HAP-1 was “No such effects were detected” in each case. The “influence of buffer pH on plasmid cleavage” value in the assay on pBR322 plasmid DNA (5 µM, 2 mM GSH, pH 5.1 to 8.1) was “a trend favoring lower pH for higher cleavage effects was observed but was not proven to be statistically significant”. Also, the DNA cleavage entry with pBR322 plasmid DNA is reported as “+”. The Apoptosis entry in assay [1] was “+”. This compound returned a Morphological changes in assay [2] of 0.

In the case of `CCOc1c2c(c3ccc(C(=O)N4CCCCC4)cn13)SSSSS2` [Compound 2, (6-Ethoxy-[1,2,3,4,5]pentathiepino[6,7-a]indolizin-9-yl)(piperidinyl)methanone], in the assay on DanG, the “decrease of G0/G1-phase cells” value is recorded as “roughly 15%”, the “increase of cells in G2/M-phase” value amounted to 6% and the “increase of cells in sub G1-phase” value came to 8%. Further, in the assay on HAP-1.KO.GPx1, the “increase of cells in G2/M-phase” value was at most 30% and the “increase of cells in sub G1-phase” value is on record as “up to 10%”. In the assay on HAP-1, the “increase of cells in G2/M-phase” value is recorded as at most 30% and the “increase of cells in sub G1-phase” value is on record as “up to 10%”. Further, the “linearized plasmid (double-strand breaks)” value (“linearized plasmid” for short) in the assay on pBR322 plasmid DNA (25 µM, 2 mM GSH) was “about 4%”. Also, the DNA cleavage result with pBR322 plasmid DNA is listed as “++”. In assay [1], the Apoptosis result is given as “+”. Further, the Morphological changes entry in assay [2] is reported as “+”.

Take `CCOc1c2c(c3ccc(C(=O)N4CCOCC4)cn13)SSSSS2` [Compound 3, (6-Ethoxy-[1,2,3,4,5]pentathiepino[6,7-a]indolizin-9-yl)(morpholino)methanone]: the “decrease of G0/G1-phase cells” value with DanG is listed as “roughly 15%”. For the same compound, the “increase of cells in G2/M-phase” value is listed as 6% in the assay with DanG, at most 30% in the assay on HAP-1.KO.GPx1 and at most 30% in the assay on HAP-1. Besides, the “increase of cells in sub G1-phase” value with DanG was 8%; in the assay on HAP-1.KO.GPx1, “up to 10%”; in the assay on HAP-1, “up to 10%”. Also, in the assay with pBR322 plasmid DNA (5 µM, 2 mM GSH, no enzyme added (CAT/SOD experiment)), the “fraction of damaged DNA” value is given as “about 43%”. Further, the “open circular DNA” value with pBR322 plasmid DNA (5 µM, 2 mM GSH, pH 5.1) was 45%; in the assay on pBR322 plasmid DNA (5 µM, 2 mM GSH, pH 6.1) it was 49%; in the assay on pBR322 plasmid DNA (5 µM, 2 mM GSH, pH 8.1), 28%. Besides, the “amount of broken plasmid” value with pBR322 plasmid DNA (5 µM, 2 mM GSH, plus 100 µg/mL CAT) amounted to 19%; in the assay with pBR322 plasmid DNA (5 µM, 2 mM GSH, plus 100 µg/mL SOD), 29%; in the assay with pBR322 plasmid DNA (5 µM, 2 mM GSH, plus CAT and SOD), 19%. The “linearized plasmid” value in the assay on pBR322 plasmid DNA (25 µM, 2 mM GSH) is “about 4%”. Besides, the “open circular DNA (single-strand breaks)” value in the assay on pBR322 plasmid DNA (25 µM, 2 mM GSH) is given as “about 75%”. For the same compound, the DNA cleavage result in the assay with pBR322 plasmid DNA was “++”. In assay [1], the Apoptosis result is listed as “++”. In assay [2], the Morphological changes result was “++”.

As to `CCOc1c2c(c3ccc(C(=O)N(CC)CC)cn13)SSSSS2` [Compound 4, 6-Ethoxy-N,N’-diethyl-[1,2,3,4,5]pentathiepino[6,7-a]indolizine-9-carboxamide], in the assay on DanG, the “decrease of G0/G1-phase cells” value is given as “roughly 15%”, the “increase of cells in G2/M-phase” value is on record as 6% and the “increase of cells in sub G1-phase” value amounted to 8%. In addition, in the assay on HAP-1.KO.GPx1, the “increase of cells in G2/M-phase” value is listed as at most 30% and the “increase of cells in sub G1-phase” value is “up to 10%”. For the same compound, in the assay on HAP-1, the “increase of cells in G2/M-phase” value is at most 30% and the “increase of cells in sub G1-phase” value was “up to 10%”. Besides, the “open circular DNA (single-strand breaks)” value with pBR322 plasmid DNA (5 µM, 2 mM GSH) is “roughly 55%”. For the same compound, in the assay on pBR322 plasmid DNA (25 µM, 2 mM GSH), the “linearized plasmid” value is given as “about 4%” and the “open circular DNA (single-strand breaks)” value is on record as “about 75%”. Also, the DNA cleavage entry with pBR322 plasmid DNA was “++”. Besides, in assay [1], the Apoptosis entry is “+”. Also, in assay [2], the Morphological changes result was “++”.

Regarding `CCOc1c2c(c3ccc(C(=O)N4CCN(C(=O)c5ccc(F)cc5)CC4)cn13)SSSSS2` [Compound 5, (6-Ethoxy-[1,2,3,4,5]pentathiepino[6,7-a]indolizin-9-yl)(4-(4-fluorobenzoyl)piperazinyl)methanone], the “decrease of G0/G1-phase cells” value in the assay with DanG is recorded as “roughly 15%”. In addition, the figures for the “increase of cells in G2/M-phase” value in the assay on DanG, with HAP-1.KO.GPx1 and with HAP-1 were 6%, at most 30% and at most 30%, respectively. The “increase of cells in sub G1-phase” value is recorded as 8% in the assay with DanG, “up to 10%” in the assay on HAP-1.KO.GPx1 and “up to 10%” in the assay on HAP-1. The “open circular DNA (single-strand breaks)” value was “roughly 55%” with pBR322 plasmid DNA (5 µM, 2 mM GSH) and “about 75%” in the assay on pBR322 plasmid DNA (25 µM, 2 mM GSH). Besides, the “linearized plasmid” value in the assay with pBR322 plasmid DNA (25 µM, 2 mM GSH) is listed as “about 4%”. Also, in the assay on pBR322 plasmid DNA, the DNA cleavage result is reported as “++”. Further, in assay [1], the Apoptosis result was “++”. The Morphological changes entry in assay [2] is listed as “++”.

As for `CCOc1c2c(c3ccc(C(=O)N4CCN(S(=O)(=O)c5ccc(C)cc5)CC4)cn13)SSSSS2` [Compound 6, (6-Ethoxy-[1,2,3,4,5]pentathiepino[6,7-a]indolizin-9-yl)(4-tosylpiperazinyl)methanone], the “cell cycle distribution vs control” value with DanG is recorded as “caused no differences from a normal cell cycle”. Besides, the “increase of cells in G2/M-phase” value in the assay on HAP-1.KO.GPx1 and in the assay on HAP-1 was “No such effects were detected” throughout. The DNA cleavage result with pBR322 plasmid DNA is “+”. In addition, in assay [1], the Apoptosis entry is listed as “+”. Also, the Morphological changes result in assay [2] is reported as “+”.

For the origin of these results see article PMC8305076, “Comprehensive Evaluation of Biological Effects of Pentathiepins on Various Human Cancer Cell Lines and Insights into Their Mode of Action” (International Journal of Molecular Sciences, 2021).
